Data set [1] deals with E. coli laboratory strain JM109. Description: Inhibition of biofilm formation, crystal violet, 96 well plates. The class given is cell-based. The note with it: Escherichia coli, JM 109, compared to the controls, read-out: inhibited biofilm formation of the JM109 strain. As for the experimental part: Biofilm inhibition experiments were conducted using an assay adapted from the reported protocol described in Pratt and Kolter, 1998, Molecular Microbiology, 30: 285-293; Li et al., 2001, J. Bacteriol., 183: 897-908. E. coli clinical strain UT189 was grown in LB in 96 well plates at room temperature for one or two days without shaking. E. coli laboratory strain JM109 was grown in LB plus 0.2% glucose in 96 well plates at room temperature for one day without shaking. To quantify the biofilm mass, the suspension culture was poured out and the biofilm was washed three times with water. The biofilm was stained with 0.1% crystal violet for 20 minutes. The plates were then washed three times with water. OD reading at 540 nm was measured to quantify the biofilm mass at the bottom of the wells. Then 95% ethanol was added to dissolve the dye at the bottom and on the wall and the OD reading at 540 nm was measured to quantify the total biofilm mass. To study the overall effect of the compounds (3.6 mg/mL in 100% ethanol as stock solution), it was added with the inoculation and a time course of biofilm mass was measured. Appropriate amounts of 100% ethanol were added to each sample to eliminate the effect of solvent. Each condition had 3-4 replicates on each plate and was performed over multiple days.

Data set [2] has as its system Haemophilus influenzae (ATCC 10211). Description: Antibacterial effect (MIC), NCCLS procedures. The class given is cell-based. The settings on record: ATCC10211, studied at 64 μg/mL, read-out: MIC (minimal inhibitory concentration). The procedure:
(§1) Using the appropriate NCCLS procedures, the antibacterial effect of asiatic acid on Haemophilus influenzae (ATCC 10211), E. coli (ATCC 25922), and P. aeruginosa (ATCC 27853) was studied at 64 μg/mL.

In the next data set the test system is E. coli (ATCC 25922). Briefly: Antibacterial effect (MIC), NCCLS procedures. The settings on record: Escherichia coli, ATCC25922; studied at 64 μg/mL; read-out: MIC (minimal inhibitory concentration). The class given is cell-based. As for the experimental part: as §1
Data set [3] has as its system P. aeruginosa (ATCC 27853). Description: Antibacterial effect (MIC), NCCLS procedures. The class given is cell-based. The note with it: Pseudomonas aeruginosa, ATCC27853; studied at 64 μg/mL; read-out: MIC (minimal inhibitory concentration). As for the experimental part: as §1
The test system of a further data set is S. mutans 25175. Briefly: Biofilm growth inhibition in 1 mL polycarbonate tubes. The class given is cell-based. The settings on record: Streptococcus mutans, 40 μg/mL.
The test system of data set [4] is Clinical isolates of P. aeruginosa from cystic fibrosis patients. Description: Detachment of mature biofilms on peg lids, crystal violet. The class given is cell-based. The settings on record: 5 ug/ml, approximately 40 hours; eighteen clinical isolates; compared to negative controls. As for the experimental part:
Clinical isolates of P. aeruginosa from cystic fibrosis patients were passed twice on tryptic soy agar with 5% sheep blood after retrieval from −80° C. and then grown overnight in CAMHB. After dilution of a culture to 0.5 McFarland in broth medium, 100 μl was transferred in triplicate to wells of a flat-bottom 96-well microtiter plate. Bacterial biofilms were formed by immersing the pegs of a modified polystyrene microtiter lid into this biofilm growth plate, followed by incubation at 37° C. for 20 hours with no movement.
Peg lids were rinsed three times in sterile water, placed onto flat-bottom microtiter plates containing biofilm inhibitors at 5 ug/ml in 100 μl of CAMHB per well and incubated for approximately 40 hours at 37° C.
Pegs were rinsed, placed in a 0.1% (wt/vol) crystal violet solution for 15 min, rinsed again, and dried for several hours. To solubilize adsorbed crystal violet, pegs were incubated in 95% ethanol (150 μl per well of a flat-bottom microtiter plate) for 15 min. The absorbance was read at 590 nm on a plate reader. The wells containing asiatic acid were compared to negative controls. Negative controls were prepared as stated above but without asiatic acid.

The test system of a further data set is E. coli UTI89[pCOMGFP]. Briefly: Bladder colonization (CFU) in infected mice, oral treatment. The class given is in vivo, Escherichia coli. The note with it: C3H/HeN mice, approximately 2 days after inoculation.
Another data set relates to S. sobrinus 6715. Description: Biofilm growth inhibition in 1 mL polycarbonate tubes. The class given is cell-based. The settings on record: Streptococcus sobrinus, 40 μg/mL.
Another data set concerns E. coli UT189[pCOMGFP]. Description: Biofilm pods (IBCs) in bladders of infected mice, intravesical compound, confocal microscopy. The class given is in vivo, Escherichia coli. The note with it: vs controls. The procedure: The procedures in this example has been previously reported by Justice, S. et al. Differentiation and development pathways of uropathogenic Escherichia coli in urinary tract pathogenesis. PNAS, 2004, 101(5), p. 1333-1338. Briefly, E. coli UT189[pCOMGFP] was prepared after retrieval from frozen stocks by inoculating appropriately in LB medium statically for approximately 20 hours. Cells were harvested and suspended in 1 ml of PBS. Cells were diluted appropriately to achieve approximately a 10^8 CFU or 10^7 CFU input into C3H/HeN mice (2 mice per group).
Mice were deprived of water for approximately two hours. In experiment 1, all mice were anesthetized with 0.15 cc ketamine cocktail. In experiment 2, all mice were anesthetized with isofluorane. In experiment 1, urine was dispelled from the bladders and approximately 40 μg/ml of test compound or an appropriate amount of ethanol as control was introduced into the bladders via catheterization of the urethra using a tubing coated tuberculin syringe. 30 minutes was allowed to elapse. In experiment 2, bladders were not pre-incubated with test compounds. Bladders were then expelled and an inoculum of 10^8 CFU (Experiment 1) or 10^7 CFU (Experiment 2) of E. coli containing 40 μg/ml of test compound or equivalent amount of ethanol as controls were introduced into the bladders as indicated above.
In experiment 1 five hours elapsed and in experiment 2 six hours elapsed, and then mice were anesthetized and sacrificed appropriately. The bladders were removed, bisected, stretched, and fixed in 3% paraformaldehyde for 1 hour at room temperature. Bladders were then permeabilized in 0.01% Triton/PBS for 10 minutes and counter stained with TOPRO3 (Molecular Probes) for 10 minutes for visualization by confocal microscopy. Bladders were mounted on Prolong antifade (Molecular Probes).

Data set [5] is described as follows: Bladder concentrations in rats (pharmacokinetic study). The note with it: rat, in vivo, po, 50 mg/kg. The procedure:
Pharmacokinetic studies of asiatic acid and madecassic acid in rats were performed separately. Asiatic acid and madecassic acid were evaluated at 50 mg/kg (oral). Two animals were assigned to the each group. Prior to dosing, a baseline blood sample was taken from each animal. At time zero for asiatic acid and madecassic acid, a single bolus dose in 50% Labrasol (Gattefosse) was given to each animal. Bladders were analyzed at 24 hours. Concentrations of both asiatic acid and madecassic acid in the bladder were approximately 30 μg/g at 24 hours.

The structures appear in SMILES notation.

Procedure for E. coli UTI89[pCOMGFP]: Briefly, E. coli UTI89[pCOMGFP] was prepared after retrieval from frozen stocks by inoculating appropriately in LB medium statically for approximately 20 hours. Cells were harvested and suspended in 1 ml of PBS. Cells were diluted appropriately to achieve approximately 10^7 CFU input into C3H/HeN mice.
Mice were deprived of water for approximately two hours. All mice were anesthetized with isofluorane. Urine was dispelled from the bladders and an inoculum of approximately 10^7 CFU of E. coli were introduced into the bladders as indicated above. Treatments of sulfamethoxazole and trimethoprim (SMZ/TMP), asiatic acid, and combination of SMZ/TMP and asiatic acid was evaluated.
3 mice received asiatic acid by orally at approximately 25 milligram per kilogram twice a day beginning one day prior to infection each day during the experiment. Asiatic acid was prepared in 50% Labrasol®. 5 mice received SMZ/TMP in their drinking water at a concentration of 270 micrograms of SMZ per millilter and 54 micrograms of TMP per milliliter immediately after infection throughout the experiment. 5 mice received asiatic acid and SMZ/TMP in combination dosed according to the individual dosing groups. The experiment was performed for approximately 2 days after inoculation. […] The bladders were removed and colony forming units (CFU) were determined as previously described by Justice, S. et al.

For the compound `C[C@H]1[C@H](C)CC[C@]2(C(=O)O)CC[C@]3(C)C(=CC[C@@H]4[C@@]5(C)C[C@@H](O)[C@H](O)[C@@](C)(CO)[C@@H]5CC[C@]43C)[C@H]12` [Asiatic acid], the inhibition at 5 µg/mL in data set [1] (5 ug/ml) is around 70%. In addition, in data set [1] (10 ug/ml), the inhibition at 10 µg/mL was around 80%. Also, the MIC (in data set [2]; in the data set with E. coli (ATCC 25922); in [3]) was above 64 µg/mL throughout. The inhibition at 40 µg/mL in the data set on S. mutans 25175 and in the data set on S. sobrinus 6715 was above 75% throughout. In [4], the “average detachment of mature biofilms” value is listed as “approximately 50%”. Also, the “bladder CFU” value in the data set on E. coli UTI89[pCOMGFP] (combination of SMZ/TMP and asiatic acid) is 2.3×10^4 CFU; with E. coli UTI89[pCOMGFP] (single treatment (asiatic acid 25 mg/kg oral twice a day; SMZ/TMP 270/54 micrograms per ml in drinking water)), 2.9×10^3 CFU. In addition, in the data set on E. coli UT189[pCOMGFP] (experiment 1: C3H/HeN mice, 40 μg/ml intravesical with 30 min pre-incubation, 10^8 CFU, five hours), the “reduction in biofilm pods or IBCs in the bladders of mice” value is on record as 77%. In addition, the “reduction in large biofilm pods or large IBCs in the bladders of mice” value in the data set with E. coli UT189[pCOMGFP] (experiment 2: C3H/HeN mice, 40 μg/ml in inoculum, no pre-incubation, 10^7 CFU, six hours) is listed as around 60%. The compound further came in with a concentration at 24 h in [5] of around 30000 ng/g.

Source of the values: patent US20070014739A1, “Compositions and methods for controlling biofilms and bacterial infections” (priority 2005, published 2007).
